From patent US9527867B2, “Antibacterial biaromatic derivatives” (Actelion Pharmaceuticals Ltd., priority 2013, dated 2016)
≈ marks a conversion by molar mass, not a printed value.

Tests used:
Experiment in all cases: Bacterial growth minimal inhibitory concentration (broth microdilution, CLSI M7-A7)
Format in all cases: cell-based
[1] = test system: Acinetobacter baumannii T6474; details: Acinetobacter baumannii, T6474, cation-adjusted Mueller-Hinton Broth, multiply-resistant strain (in particular quinolone-resistant)
Procedure, shortened: (§1)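 Read-out is the minimal inhibitory concentration in mg/L, obtained by microdilution in cation-adjusted Mueller-Hinton broth following CLSI M7-A7. Quinolone resistance is present in A798 and T6474, which are multiply resistant, but absent in A894 and in methicillin-sensitive ATCC29213.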

[2] = test system: Enterococcus faecium A949; details: Enterococcus faecium, A949, cation-adjusted Mueller-Hinton Broth, multiply-resistant strain (in particular quinolone-resistant), read-out: MIC for E. faecium A949
Procedure, shortened: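 Broth microdilution after CLSI M7-A7 in cation-adjusted Mueller-Hinton medium gave MIC values in mg/L.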

[3] = test system: Moraxella catarrhalis A894; details: Moraxella catarrhalis, A894, cation-adjusted Mueller-Hinton Broth, quinolone-sensitive strain
Procedure, shortened: as §1

[4] = test system: Staphylococcus aureus A798; details: Staphylococcus aureus, A798, cation-adjusted Mueller-Hinton Broth, multiply-resistant strain (in particular quinolone-resistant), read-out: MIC for S. aureus A798
Procedure, shortened: as §1

[5] = test system: Staphylococcus aureus ATCC29213; details: Staphylococcus aureus, ATCC29213, cation-adjusted Mueller-Hinton Broth, methicillin-sensitive and quinolone-sensitive strain, read-out: MIC for S. aureus ATCC29213
Procedure, shortened: as §1

COc1cccc(-c2cccc(CNCC[C@H]3CN(c4ccc5c(n4)NC(=O)CO5)C(=O)O3)c2)n1 [Example 41, 6-((S)-5-{2-[3-(6-methoxy-pyridin-2-yl)-benzylamino]-ethyl}-2-oxo-oxazolidin-3-yl)-4H-pyrido[3,2-b][1,4]oxazin-3-one]
MIC [1]: 0.25 µg/mL (≈ 0.526 µM) | MIC [2]: 1 µg/mL (≈ 2.1 µM) | MIC [3]: ≤ 0.016 µg/mL | MIC [4]: 0.063 µg/mL (≈ 0.132 µM) | MIC [5]: 0.063 µg/mL (≈ 0.132 µM)

O=C1COc2ccc(N3C[C@H](CCNCc4cccc(-c5cccc(O)c5)c4)OC3=O)nc2N1 [Example 63, 6-((S)-5-{2-[(3′-hydroxy-biphenyl-3-ylmethyl)-amino]-ethyl}-2-oxo-oxazolidin-3-yl)-4H-pyrido[3,2-b][1,4]oxazin-3-one]
MIC [1]: 0.5 µg/mL (≈ 1.09 µM) | MIC [2]: 16 µg/mL (≈ 34.7 µM) | MIC [3]: ≤ 0.063 µg/mL | MIC [4]: 1 µg/mL (≈ 2.17 µM) | MIC [5]: 1 µg/mL (≈ 2.17 µM)

COc1cccc(-c2cccc(CNCC[C@H]3CN(c4ccc5c(n4)NC(=O)CO5)C(=O)O3)c2)c1 [Example 4, 6-((S)-5-{2-[(3′-methoxy-biphenyl-3-ylmethyl)-amino]-ethyl}-2-oxo-oxazolidin-3-yl)-4H-pyrido[3,2-b][1,4]oxazin-3-one]
MIC [1]: 0.5 µg/mL (≈ 1.05 µM) | MIC [2]: 4 µg/mL (≈ 8.43 µM) | MIC [3]: 0.031 µg/mL (≈ 0.0653 µM) | MIC [4]: 0.25 µg/mL (≈ 0.527 µM) | MIC [5]: 0.25 µg/mL (≈ 0.527 µM)

CNC(=O)COc1cccc(-c2cccc(CNCC[C@H]3CN(c4ccc5c(n4)NC(=O)CO5)C(=O)O3)c2)c1 [Example 78, N-methyl-2-[3′-({2-[(S)-2-oxo-3-(3-oxo-3,4-dihydro-2H-pyrido[3,2-b][1,4]oxazin-6-yl)-oxazolidin-5-yl]-ethylamino}-methyl)-biphenyl-3-yloxy]-acetamide]
MIC [1]: 1 µg/mL (≈ 1.88 µM) | MIC [2]: 8 µg/mL (≈ 15 µM) | MIC [3]: 0.031 µg/mL (≈ 0.0583 µM) | MIC [4]: 1 µg/mL (≈ 1.88 µM) | MIC [5]: 0.5 µg/mL (≈ 0.941 µM)

COc1cc(C#N)cc(-c2cccc(CNCC[C@@H]3CN(c4ccc5c(c4)NC(=O)CS5)C(=O)O3)c2)n1 [Example 2, 2-methoxy-6-[3-({2-[(R)-2-oxo-3-(3-oxo-3,4-dihydro-2H-benzo[1,4]thiazin-6-yl)-oxazolidin-5-yl]-ethylamino}-methyl)-phenyl]-isonicotinonitrile]
MIC [1]: 0.25 µg/mL (≈ 0.485 µM) | MIC [2]: 0.5 µg/mL (≈ 0.97 µM) | MIC [3]: ≤ 0.016 µg/mL | MIC [4]: ≤ 0.016 µg/mL | MIC [5]: ≤ 0.016 µg/mL

COc1cc(-c2cccc(CNCC[C@@H]3CN(c4ccc5c(c4)NC(=O)CS5)C(=O)O3)c2)ncn1 [Example 24, 6-((R)-5-{2-[3-(6-methoxy-pyrimidin-4-yl)-benzylamino]-ethyl}-2-oxo-oxazolidin-3-yl)-4H-benzo[1,4]thiazin-3-one]
MIC [1]: 1 µg/mL (≈ 2.03 µM) | MIC [2]: 4 µg/mL (≈ 8.14 µM) | MIC [3]: 0.063 µg/mL (≈ 0.128 µM) | MIC [4]: 0.5 µg/mL (≈ 1.02 µM) | MIC [5]: 0.5 µg/mL (≈ 1.02 µM)

COc1cc(OC)nc(-c2cccc(CNCC[C@@H]3CN(c4ccc5c(c4)NC(=O)CS5)C(=O)O3)c2)n1 [Example 27, 6-((R)-5-{2-[3-(4,6-dimethoxy-pyrimidin-2-yl)-benzylamino]-ethyl}-2-oxo-oxazolidin-3-yl)-4H-benzo[1,4]thiazin-3-one]
MIC [1]: 0.5 µg/mL (≈ 0.959 µM) | MIC [2]: 1 µg/mL (≈ 1.92 µM) | MIC [3]: ≤ 0.016 µg/mL | MIC [4]: 0.031 µg/mL (≈ 0.0594 µM) | MIC [5]: 0.063 µg/mL (≈ 0.121 µM)

O=C1COc2ccc(N3C[C@H](CCNCc4cccc(-c5cccc(OCC6CC6)c5)c4)OC3=O)nc2N1 [Example 58, 6-((S)-5-{2-[(3′-cyclopropylmethoxy-biphenyl-3-ylmethyl)-amino]-ethyl}-2-oxo-oxazolidin-3-yl)-4H-pyrido[3,2-b][1,4]oxazin-3-one]
MIC [1]: 8 µg/mL (≈ 15.5 µM) | MIC [2]: 8 µg/mL (≈ 15.5 µM) | MIC [3]: 0.125 µg/mL (≈ 0.243 µM) | MIC [4]: 1 µg/mL (≈ 1.94 µM) | MIC [5]: 2 µg/mL (≈ 3.89 µM)

COc1cnnc(-c2cccc(CNCCc3nn(-c4ccc5c(n4)NC(=O)CO5)c(=O)o3)c2)c1 [Example 108, 6-(5-{2-[3-(5-methoxy-pyridazin-3-yl)-benzylamino]-ethyl}-2-oxo-[1,3,4]oxadiazol-3-yl)-4H-pyrido[3,2-b][1,4]oxazin-3-one]
MIC [1]: 1 µg/mL (≈ 2.1 µM) | MIC [2]: > 8 µg/mL | MIC [3]: 0.125 µg/mL (≈ 0.263 µM) | MIC [4]: 4 µg/mL (≈ 8.41 µM) | MIC [5]: 2 µg/mL (≈ 4.21 µM)

N#Cc1cncc(-c2cccc(CNCC[C@@H]3CN(c4ccc5c(c4)NC(=O)CS5)C(=O)O3)c2)c1 [Example 17, 5-[3-({2-[(R)-2-oxo-3-(3-oxo-3,4-dihydro-2H-benzo[1,4]thiazin-6-yl)-oxazolidin-5-yl]-ethylamino}-methyl)-phenyl]-nicotinonitrile]
MIC [1]: 0.125 µg/mL (≈ 0.257 µM) | MIC [2]: 1 µg/mL (≈ 2.06 µM) | MIC [3]: ≤ 0.016 µg/mL | MIC [4]: 0.125 µg/mL (≈ 0.257 µM) | MIC [5]: 0.063 µg/mL (≈ 0.13 µM)

COc1cncc(-c2cccc(CNCC[C@@H]3CN(c4ccc5c(c4)NC(=O)CS5)C(=O)O3)c2)n1 [Example 25, 6-((R)-5-{2-[3-(6-methoxy-pyrazin-2-yl)-benzylamino]-ethyl}-2-oxo-oxazolidin-3-yl)-4H-benzo[1,4]thiazin-3-one]
MIC [1]: 0.25 µg/mL (≈ 0.509 µM) | MIC [2]: 1 µg/mL (≈ 2.03 µM) | MIC [3]: ≤ 0.016 µg/mL | MIC [4]: 0.031 µg/mL (≈ 0.0631 µM) | MIC [5]: 0.031 µg/mL (≈ 0.0631 µM)

N#Cc1ncccc1-c1cccc(CNCC[C@H]2CN(c3ccc4c(n3)NC(=O)CO4)C(=O)O2)c1 [Example 73, 3-[3-({2-[(S)-2-oxo-3-(3-oxo-3,4-dihydro-2H-pyrido[3,2-b][1,4]oxazin-6-yl)-oxazolidin-5-yl]-ethylamino}-methyl)-phenyl]-pyridine-2-carbonitrile]
MIC [1]: 1 µg/mL (≈ 2.13 µM) | MIC [2]: 16 µg/mL (≈ 34 µM) | MIC [3]: ≤ 0.063 µg/mL | MIC [4]: 2 µg/mL (≈ 4.25 µM) | MIC [5]: 0.5 µg/mL (≈ 1.06 µM)

N#Cc1cccc(-c2cccc(CNCCc3cn(-c4ccc5c(n4)NC(=O)CO5)c(=O)o3)c2O)n1 [Example 96, 6-[2-hydroxy-3-({2-[2-oxo-3-(3-oxo-3,4-dihydro-2H-pyrido[3,2-b][1,4]oxazin-6-yl)-2,3-dihydro-oxazol-5-yl]-ethylamino}-methyl)-phenyl]-pyridine-2-carbonitrile]
MIC [1]: 0.125 µg/mL (≈ 0.258 µM) | MIC [2]: 1 µg/mL (≈ 2.06 µM) | MIC [3]: ≤ 0.016 µg/mL | MIC [4]: 0.031 µg/mL (≈ 0.064 µM) | MIC [5]: 0.031 µg/mL (≈ 0.064 µM)

N#Cc1cccc(-c2cccc(CNCCc3cn(-c4ccc5c(n4)NC(=O)CO5)c(=O)o3)c2)c1 [Example 36, 3′-({2-[2-oxo-3-(3-oxo-3,4-dihydro-2H-pyrido[3,2-b][1,4]oxazin-6-yl)-2,3-dihydro-oxazol-5-yl]-ethylamino}-methyl)-biphenyl-3-carbonitrile]
MIC [1]: 0.063 µg/mL (≈ 0.135 µM) | MIC [2]: 0.5 µg/mL (≈ 1.07 µM) | MIC [3]: ≤ 0.016 µg/mL | MIC [4]: 0.063 µg/mL (≈ 0.135 µM) | MIC [5]: 0.063 µg/mL (≈ 0.135 µM)

O=C1COc2ccc(N3C[C@H](CCNCc4cccc(-c5cccc(OCCCO)c5)c4)OC3=O)nc2N1 [Example 53, 6-[(S)-5-(2-{[3′-(3-hydroxy-propoxy)-biphenyl-3-ylmethyl]-amino}-ethyl)-2-oxo-oxazolidin-3-yl]-4H-pyrido[3,2-b][1,4]oxazin-3-one]
MIC [1]: 4 µg/mL (≈ 7.71 µM) | MIC [2]: 16 µg/mL (≈ 30.9 µM) | MIC [3]: 0.125 µg/mL (≈ 0.241 µM) | MIC [4]: 1 µg/mL (≈ 1.93 µM) | MIC [5]: 2 µg/mL (≈ 3.86 µM)

COc1cccc(-c2cccc(CNCCc3cn(-c4ccc5c(n4)NC(=O)CO5)c(=O)o3)c2O)n1 [Example 85, 6-(5-{2-[2-hydroxy-3-(6-methoxy-pyridin-2-yl)-benzylamino]-ethyl}-2-oxo-oxazol-3-yl)-4H-pyrido[3,2-b][1,4]oxazin-3-one]
MIC [1]: 0.125 µg/mL (≈ 0.255 µM) | MIC [2]: 0.5 µg/mL (≈ 1.02 µM) | MIC [3]: ≤ 0.016 µg/mL | MIC [4]: ≤ 0.016 µg/mL | MIC [5]: ≤ 0.016 µg/mL

N#Cc1cccc(-c2cccc(CNCC[C@@H]3CN(c4ccc5c(c4)NC(=O)CS5)C(=O)O3)c2)c1 [Example 5, 3′-({2-[(R)-2-oxo-3-(3-oxo-3,4-dihydro-2H-benzo[1,4]thiazin-6-yl)-oxazolidin-5-yl]-ethylamino}-methyl)-biphenyl-3-carbonitrile]
MIC [1]: 0.125 µg/mL (≈ 0.258 µM) | MIC [2]: 1 µg/mL (≈ 2.06 µM) | MIC [3]: ≤ 0.016 µg/mL | MIC [4]: 0.063 µg/mL (≈ 0.13 µM) | MIC [5]: 0.063 µg/mL (≈ 0.13 µM)

COc1cccc(-c2cncc(CNCC[C@H]3CN(c4ccc5c(n4)NC(=O)CO5)C(=O)O3)n2)c1 [Example 104, 6-[(S)-5-(2-{[6-(3-methoxy-phenyl)-pyrazin-2-ylmethyl]-amino}-ethyl)-2-oxo-oxazolidin-3-yl]-4H-pyrido[3,2-b][1,4]oxazin-3-one]
MIC [1]: 0.5 µg/mL (≈ 1.05 µM) | MIC [2]: 2 µg/mL (≈ 4.2 µM) | MIC [3]: 0.031 µg/mL (≈ 0.0651 µM) | MIC [4]: 0.25 µg/mL (≈ 0.525 µM) | MIC [5]: 0.25 µg/mL (≈ 0.525 µM)

COc1ccc(OC)c(-c2cccc(CNCC[C@H]3CN(c4ccc5c(n4)NC(=O)CO5)C(=O)O3)c2)c1 [Example 64, 6-((S)-5-{2-[(2′,5′-dimethoxy-biphenyl-3-ylmethyl)-amino]-ethyl}-2-oxo-oxazolidin-3-yl)-4H-pyrido[3,2-b][1,4]oxazin-3-one]
MIC [1]: 16 µg/mL (≈ 31.7 µM) | MIC [2]: 16 µg/mL (≈ 31.7 µM) | MIC [3]: ≤ 0.063 µg/mL | MIC [4]: 2 µg/mL (≈ 3.96 µM) | MIC [5]: 1 µg/mL (≈ 1.98 µM)

COc1cncc(-c2cccc(CNCC[C@@H]3CN(c4ccc5c(c4)NC(=O)CS5)C(=O)O3)c2)c1 [Example 13, 6-((R)-5-{2-[3-(5-methoxy-pyridin-3-yl)-benzylamino]-ethyl}-2-oxo-oxazolidin-3-yl)-4H-benzo[1,4]thiazin-3-one]
MIC [1]: 0.125 µg/mL (≈ 0.255 µM) | MIC [2]: 1 µg/mL (≈ 2.04 µM) | MIC [3]: ≤ 0.016 µg/mL | MIC [4]: 0.063 µg/mL (≈ 0.128 µM) | MIC [5]: 0.063 µg/mL (≈ 0.128 µM)

COc1cccc(-c2cccc(CNCC[C@@H]3CN(c4ccc5c(c4)NC(=O)CS5)C(=O)O3)c2)n1 [Example 15, 6-((R)-5-{2-[3-(6-methoxy-pyridin-2-yl)-benzylamino]-ethyl}-2-oxo-oxazolidin-3-yl)-4H-benzo[1,4]thiazin-3-one]
MIC [1]: 0.125 µg/mL (≈ 0.255 µM) | MIC [2]: 0.5 µg/mL (≈ 1.02 µM) | MIC [3]: ≤ 0.016 µg/mL | MIC [4]: 0.031 µg/mL (≈ 0.0632 µM) | MIC [5]: 0.063 µg/mL (≈ 0.128 µM)
